Laboratory results published in patent US9981988B2, “Polymorphic forms and co-crystals of a c-Met inhibitor” (AMGEN, INC., priority 2014, dated 2018).
Where two headings read alike, the source gives them in different places.

What was measured:
Format in all cases: physicochemical
[1] = Dynamic vapor sorption / moisture sorption
Description: Moisture sorption data was collected using a Surface Measurement Systems DVS-Advantage instrument. Equilibrium criteria were set at ±0.002% weight change in 5 minutes with a maximum equilibrium time of 360 minutes.

[2] = Equilibrium solubility in water and aqueous media; conditions: 22.5 °C, thermodynamic from solid
Description: In all studies, excess solid of the compound was allowed to equilibrate at a temperature in the range of about 20 to 25° C. for 12-48 hours while stirring.

[3] = Solid state stability under accelerated stability testing conditions, HPLC
Description: High performance liquid chromatography (HPLC) analyses were performed on an Agilent 1100 or 1200 series HPLC equipped with a binary pump, diode-array detector, thermostated column compartment, and auto sampler. Separation and elution was achieved using a reverse-phase column and 0.1% triflouroacetic acid/water/acetonitrile mobile phase.
Solid samples of the free base monohydrate form of Compound M were placed under accelerated stability testing conditions (25° C./60% RH, 40° C./75% RH and 60° C./ambient RH) for 12 weeks.

total weight gain ([1]; between about 40% and about 90% relative humidity): about 0.2 wt. % | hygroscopicity ([1]; dynamic vapor sorption): non-hygroscopic | solubility ([2]; 0.01N HCl, pH 1.9, simulated gastric fluid, 0.01N HCl, pH 1.9, 20 to 25° C., 12-48 hours, read-out: Solubility): 350 µg/mL | solubility ([2]; FaSIF, pH 6.8, fassif, FaSIF, pH 6.8, 20 to 25° C., 12-48 hours, read-out: Solubility): 440 µg/mL | solubility ([2]; PBS, pH 6.9, aqueous buffer, PBS, pH 6.9, 20 to 25° C., 12-48 hours, read-out: Solubility): 180 µg/mL | solubility ([2]; SGF, pH 2.1, aqueous with cosolvent or surfactant or cyclodextrin, SGF (0.25% (w/v) SDS 0.2% (w/v) NaCl in 0.01N HCl), pH 2.1, 20 to 25° C., 12-48 hours, read-out: Solubility): 1440 µg/mL | solubility ([2]; aqueous medium, pH adjusted with HCl, pH 0.73, aqueous buffer, pH 0.73 (adjusted with HCl), read-out: solubility): 9740 µg/mL | solubility ([2]; aqueous medium, pH adjusted with methane sulfonic acid, pH 0.8, aqueous buffer, pH 0.80 (adjusted with methane sulfonic acid), read-out: solubility): 12400 µg/mL | solubility at 40 h ([2]; water, pH 4.7, water, Sample 1, duration 40 h, isolation method 1, pH 4.70, about 20 to 25° C.): 253 µg/mL | solubility ([2]; water, water, water, pH about 4 to about 7, about 20° C. to about 25° C., read-out: aqueous solubility): 260 µg/mL | Area % (215 nm), peak 2, RRT 1.09 ([3]; Initial): <0.1 Area % | Area % (215 nm), peak 3, RRT 1.25 ([3]; Initial): <0.1 Area % | Area % (215 nm), peak 4, RRT 1.53 ([3]; Initial): <0.1 Area % | Area % (215 nm), peak monohydrate, RRT 1.00 ([3]; Initial): 100.0 Area % | Total Impurities, Area % (215 nm) ([3]; Initial): <0.1 Area % | Area % (215 nm), peak 2, RRT 1.09 ([3]; Week 2, 25/60): 0.27 Area % | Area % (215 nm), peak 3, RRT 1.25 ([3]; Week 2, 25/60): 0.28 Area % | Area % (215 nm), peak 4, RRT 1.53 ([3]; Week 2, 25/60): 0.28 Area % | Area % (215 nm), peak monohydrate, RRT 1.00 ([3]; Week 2, 25/60): 99.18 Area % | Total Impurities, Area % (215 nm) ([3]; Week 2, 25/60): 0.82 Area % | Area % (215 nm), peak 2, RRT 1.09 ([3]; Week 2, 40/75): 0.31 Area % | Area % (215 nm), peak 3, RRT 1.25 ([3]; Week 2, 40/75): 0.35 Area % | Area % (215 nm), peak 4, RRT 1.53 ([3]; Week 2, 40/75): <0.1 Area % | Area % (215 nm), peak monohydrate, RRT 1.00 ([3]; Week 2, 40/75): 99.35 Area % | Total Impurities, Area % (215 nm) ([3]; Week 2, 40/75): 0.65 Area % | Area % (215 nm), peak 2, RRT 1.09 ([3]; Week 2, 60 C.): 0.25 Area % | Area % (215 nm), peak 3, RRT 1.25 ([3]; Week 2, 60 C.): 0.27 Area % | Area % (215 nm), peak 4, RRT 1.53 ([3]; Week 2, 60 C.): 0.27 Area % | Area % (215 nm), peak monohydrate, RRT 1.00 ([3]; Week 2, 60 C.): 99.21 Area % | Total Impurities, Area % (215 nm) ([3]; Week 2, 60 C.): 0.79 Area % | Area % (215 nm), peak 2, RRT 1.09 ([3]; Week 4, 25/60): <0.1 Area % | Area % (215 nm), peak 3, RRT 1.25 ([3]; Week 4, 25/60): <0.1 Area % | Area % (215 nm), peak 4, RRT 1.53 ([3]; Week 4, 25/60): <0.1 Area % | Area % (215 nm), peak monohydrate, RRT 1.00 ([3]; Week 4, 25/60): 99.90 Area % | Total Impurities, Area % (215 nm) ([3]; Week 4, 25/60): 0.01 Area % | Area % (215 nm), peak 2, RRT 1.09 ([3]; Week 4, 40/75): <0.1 Area % | Area % (215 nm), peak 3, RRT 1.25 ([3]; Week 4, 40/75): <0.1 Area % | Area % (215 nm), peak 4, RRT 1.53 ([3]; Week 4, 40/75): <0.1 Area % | Area % (215 nm), peak monohydrate, RRT 1.00 ([3]; Week 4, 40/75): 99.86 Area % | Total Impurities, Area % (215 nm) ([3]; Week 4, 40/75): 0.14 Area % | Area % (215 nm), peak 2, RRT 1.09 ([3]; Week 4, 60 C.): <0.1 Area % | Area % (215 nm), peak 3, RRT 1.25 ([3]; Week 4, 60 C.): <0.1 Area % | Area % (215 nm), peak 4, RRT 1.53 ([3]; Week 4, 60 C.): <0.1 Area % | Area % (215 nm), peak monohydrate, RRT 1.00 ([3]; Week 4, 60 C.): 99.90 Area % | Total Impurities, Area % (215 nm) ([3]; Week 4, 60 C.): <0.1 Area % | Area % (215 nm), peak 2, RRT 1.09 ([3]; Week 8, 25/60): <0.1 Area % | Area % (215 nm), peak 3, RRT 1.25 ([3]; Week 8, 25/60): <0.1 Area % | Area % (215 nm), peak 4, RRT 1.53 ([3]; Week 8, 25/60): <0.1 Area % | Area % (215 nm), peak monohydrate, RRT 1.00 ([3]; Week 8, 25/60): 99.97 Area % | Total Impurities, Area % (215 nm) ([3]; Week 8, 25/60): <0.1 Area % | Area % (215 nm), peak 2, RRT 1.09 ([3]; Week 8, 40/75): <0.1 Area % | Area % (215 nm), peak 3, RRT 1.25 ([3]; Week 8, 40/75): <0.1 Area % | Area % (215 nm), peak 4, RRT 1.53 ([3]; Week 8, 40/75): <0.1 Area % | Area % (215 nm), peak monohydrate, RRT 1.00 ([3]; Week 8, 40/75): 99.92 Area % | Total Impurities, Area % (215 nm) ([3]; Week 8, 40/75): <0.1 Area % | Area % (215 nm), peak 2, RRT 1.09 ([3]; Week 8, 60 C.): <0.1 Area % | Area % (215 nm), peak 3, RRT 1.25 ([3]; Week 8, 60 C.): <0.1 Area % | Area % (215 nm), peak 4, RRT 1.53 ([3]; Week 8, 60 C.): <0.1 Area % | Area % (215 nm), peak monohydrate, RRT 1.00 ([3]; Week 8, 60 C.): 99.97 Area %
Compound: COCCOc1cnc2ccn([C@H](C)c3nnc4c(F)cc(-c5cnn(C)c5)cn34)c(=O)c2c1 [free base monohydrate form of Compound M, 6-{(1R)-1-[8-fluoro-6-(1-methyl-1H-pyrazol-4-yl)[1,2,4]triazolo[4,3-a]pyridin-3-yl]ethyl}-3-(2-methoxyethoxy)-1,6-naphthyridin-5(6H)-one]
changes in solid state properties ([3]; 25° C./60% RH, 40° C./75% RH and 60° C./ambient RH for 12 weeks): no changes in solid state properties were observed
